The test system of data set [1] is primary human T-cells. Put plainly: Cytotoxicity to T-cells in vitro. The class given is cell-based. The conditions noted are these: for T-cell death: at about 0.1 μM; for IC50: primary human T-cells, read-out: T-cell cytotoxicity IC50.
The subject of data set [2] is etoposide-treated IMR-90 cells. The experiment in a line: Etoposide-induced senescence model, resazurin cell viability (screen and dose-response). Format: cell-based, human. The conditions noted are these: 3 days. Put shortly:
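IMR-90 fibroblasts made senescent with 50 μM etoposide for 2 days, then 4 days recovery before plating. Compounds at 10 μM or 1 μM final (screen) or three-fold dilutions (1% DMSO) for 3 days, then 0.15 mM resazurin 1 day, fluorescence 550/590 nm. Viability expressed as fraction of untreated controls; biological duplicates.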
In general terms: Resazurin is reduced to fluorescent resorufin, in cell work by metabolically active cells.

The conditions of data set [3]: Phase II, lung carcinoma; cited from earlier work.
For data set [4] the following is noted: cited from earlier work.
Data set [5] has as its system human red blood cells. Put plainly: Hemolysis assay. The class given is cell-based. How it is done: Hemolysis assay. Whole human blood containing EDTA (Innovative Resarch IWB1K2E) was centrifuged at 120×g at 4° C., for 5 min and resuspended in Dulbecco's PBS (DPBS: VWR 02-0119-0500). These washing steps were repeated until the supernatant was clear. Red blood cells were then resuspended in DPBS to 5×10^8 cells/mL, and 100 μL of cells was plated into each well of a 96-well clear round-bottom plate. Compounds were added to the indicated concentrations, and DMSO was used as a vehicle. Samples were incubated for 1 h at 37° C., without shaking, after which plates were centrifuged at 1500×g at room temperature for 5 min to pellet cells. 60 μL of the supernatant from each sample was then transferred to a 96-well clear flat-bottom plate, and the absorbance was read at 405 nm using a SpectraMax M3 plate reader to quantify the amount of soluble hemoglobin. Fractional hemolysis was determined by linearly interpolating absorbance values with respect to a positive control (saturation with 10% Triton X-100) and a negative control (1% DMSO vehicle). Results are depicted in FIG. 14.

The test system of data set [6] is Salmonella typhimurium TA100. Put plainly: Genotoxicity assay (Ames 384-ISO test). As to conditions: 100 μM. The class given is cell-based. How it is done: Genotoxicity assay. An Ames 384-ISO test (6041-1S) from Environmental Bio-Detection Products, Inc, was used following the manufacturer's instructions. Briefly. Salmonella typhimurium TA100 was grown overnight (16-18 h) at 37° C., with shaking at 300 rpm and treated with the provided exposure media and compound samples at the final concentrations indicated. Treatment with the provided 4-nitroquinoline 1-oxide (4NQO), a mutagen, was used as a positive control. Cells were then added to the provided reversion solution, and each sample was split into 48 wells of 384-well plates. Plates were incubated at 37° C., for 2 days, after which the number of revertant (yellow-colored) wells corresponding to each sample was counted. […] An overnight bacterial culture was diluted 1:10.000 in LB medium (Becton Dickinson 244620) and plated using 99 μL working volumes into the wells of a clear flat-bottom 96-well plate. One μL of two-fold dilutions of each test compound in DMSO, starting from a final concentration of 500 μM, was added across wells, and plates were sealed and incubated overnight at 37° C., to determine bacterial growth.

The subject of data set [7] is HepG2 cells. The experiment in a line: Cytotoxicity against HepG2 cells (resazurin). The conditions noted are these: 3 days treatment; curve-fitting, two biological replicates. The class given is cell-based, human. The procedure:
(§1) Measuring cytotoxicity against HepG2 and HEK293 cells. Cytotoxicity in human embryonic kidney (HEK293) and liver carcinoma (HepG2) cells was assayed as above using a resazurin assay. Cells were obtained from ATCC (ATCC CRL-1573 and HB-8065), passaged <10 times, and grown in Dulbecco's modification of Eagle's Medium (DMEM: Corning 10^−013-CV) supplemented with 10% FBS and 1% penicillin-streptomycin. 99 μL of cells were plated into each well of a 96-well clear flat-bottom, black polystyrene tissue-culture-treated plate at a density of ˜10+ cells/well, and plates were incubated overnight for adhesion. The day after plating. 1 μL of each compound, prepared as two-fold serial dilutions of 5 mM stock solutions in DMSO, was added to each well. Cells were incubated for 3 days, after which resazurin was added to each well to a final concentration of 0.15 mM. After an additional 1 day of incubation, the fluorescence excitation/emission at 550/590 nm was read using a SpectraMax M3 plate reader. Experiments were performed in biological duplicate. IC50 values were determined by normalizing with respect to the fluorescence intensity values of untreated control cells on day 3, as described in Calculation of cellular viability values in dose-response curves above.

Data set [8] relates to HEK293 cells. Put plainly: Cytotoxicity against HEK293 cells (resazurin). Format: cell-based, human. The conditions noted are these: 3 days treatment; curve-fitting, two biological replicates. How it is done: as §1
A short description of data set [9]: Cytotoxicity to T-cells in vitro. Format: cell-based, human. The conditions noted are these: human, primary human T-cells; read-out: T-cell cytotoxicity IC50.
The subject of data set [10] is ex vivo human skin. Put plainly: Ex vivo aged human skin model. The procedure:
IBX-100 was first tested in ex vivo skin for safety.
IBX-100 was further tested in ex vivo skin for efficacy, p16 mRNA expression was measured after 5 days of topical application of IBX-100 on an older subject (e.g. Person, Fitzpatrick type 2) skin, and compared to vehicle values.

The target in data set [11] is Mcl-1 (Homo sapiens, UniProt Q07820). Put plainly: Mcl-1 TR-FRET. Format: binding. A general note: Time-resolved FRET reads energy transfer from a long-lived donor to a nearby acceptor.
Chain of Mcl-1 (Q07820 whole entry, species assumed): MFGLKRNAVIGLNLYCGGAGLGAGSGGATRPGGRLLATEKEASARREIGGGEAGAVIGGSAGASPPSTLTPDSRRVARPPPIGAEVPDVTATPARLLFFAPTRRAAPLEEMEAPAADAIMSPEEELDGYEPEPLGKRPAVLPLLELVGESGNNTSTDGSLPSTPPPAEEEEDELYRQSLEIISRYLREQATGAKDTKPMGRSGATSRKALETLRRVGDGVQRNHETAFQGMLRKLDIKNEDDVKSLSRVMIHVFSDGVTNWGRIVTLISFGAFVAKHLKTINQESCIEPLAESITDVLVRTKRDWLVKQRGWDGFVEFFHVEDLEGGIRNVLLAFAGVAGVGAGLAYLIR
The test system of data set [12] is wounded ex vivo human skin. The experiment in a line: Ex vivo wounded skin model. How it is done:
For the younger skin sample, RNA expression levels of collagen (Col1a1) and matrix metallopeptidase 9 (MMP9) were additionally measured. Higher levels of Col1a1 may be associated with senescence and scarring.
IBX-100 was tested again for safety in a combination dosing regimen. IBX-100 was formulated as a 10% solution in 100% DMSO and applied directly by pipetting 5 μL on wounded younger skin (e.g. Person, Fitzpatrick type 2-3). Additionally, IBX-100 was administered to the culture medium at a final concentration of about 100 μg/mL, by adding 1 μL of a 100 mg/mL solution in DMSO to 1 mL of culture media, as a model of systemic administration.
To test efficacy. IBX-100 was applied both topically and systemically as described above every 24 h for 5 days. On day 6, the skin biopsies were excised, and p16. Col1a1, and MMP9 RNA expression was measured inside each wound. Compared to vehicle (e.g., DMSO) values, p16. Col1a1, and MMP9 expression was decreased, on average, by ˜30%. ˜ 60%, and ˜60%, respectively, with administration of IBX-100 (FIG. 19).

The mark [13] stands for this setting: 10 μM, active: control viability >0.5, Snc/control ratio <0.7.
Where [14] appears, read: topical and systemic every 24 h for 5 days, day 6.

The values that follow come from US20260097022A1, “COMPOUNDS AND USES THEREOF” (Integrated Biosciences, Inc., priority 2023, published 2026).

Broadly, the IC50 is the midpoint of a concentration-inhibition curve.

For the compound `CC1(C)CCC(CN2CCN(c3ccc(C(=O)NS(=O)(=O)c4ccc(NCC5CCOCC5)c([N+](=O)[O-])c4)c(Oc4cnc5[nH]ccc5c4)c3)CC2)=C(c2ccc(Cl)cc2)C1` [ABT-199], in data set [1], the T-cell death result is given as “substantial cell death” and the half-inhibitory concentration (IC50) was approximately 1 µM.
As for `CC1(C)CCC(c2ccc(Cl)cc2)=C(CN2CCN(c3ccc(C(=O)NS(=O)(=O)c4ccc(N[C@H](CCN5CCOCC5)CSc5ccccc5)c(S(=O)(=O)C(F)(F)F)c4)cc3)CC2)C1` [ABT-263], in data set [1], the T-cell death entry is reported as “substantial cell death” and the IC50 was approximately 1 µM. The “senolytic activity in screen” value in [2] (1 μM) was “inactive”. Further, the “senolytic activity in screen” value in [2] (setting [13]) is on record as “active”. Also, the “side effects in patients” value in [3] is “thrombocytopenia and neutropenia were common side effects”.
As for `CN(C)CC[C@H](CSc1ccccc1)Nc1ccc(S(=O)(=O)NC(=O)c2ccc(N3CCN(Cc4ccccc4-c4ccc(Cl)cc4)CC3)cc2)cc1[N+](=O)[O-]` [ABT-737, reference compound], in [1], the T-cell death entry is given as “substantial cell death”. In addition, the IC50 in data set [1] was approximately 1 µM; in [7], 132 µM; in data set [8], 28.8 µM. In data set [4], the bioavailability entry is “limited bioavailability”. Also, the hemolysis entry in [5] (up to a final concentration of 100 μM, 1 h at 37° C.) is “did not induce significant hemolysis”. In addition, in [6], the “reversion of bacterial cultures (mutagenic potential)” value is listed as “did not induce significant reversion”. Also, the “senolytic activity in screen” value in data set [2] (1 μM) was “inactive”; in data set [2] (setting [13]), “active”.
As for `CCOc1ccc(NC(=O)CSc2nc3ccc(NC(=O)c4ccccc4C)cc3s2)cc1` [compound 1], in data set [9], the IC50 was more than 100 µM. The “safety in ex vivo skin” value in data set [10] (5% topical ointment in 10% DMSO: 45% PEG300:45% water, older and younger subject skin) is “No adverse effects”. Also, the “average decrease in p16 mRNA expression compared to vehicle” value in data set [10] (5 days of topical application, older subject skin, three samples) is listed as “approximately 40%”. Also, the IC50 in data set [11] was more than 100 µM. Moreover, in [12] (10% solution in DMSO topically and about 100 μg/mL in culture medium), the “safety in wounded ex vivo skin” value was “no adverse effects”. Further, in data set [12] (setting [14]), the “average decrease in Col1a1 RNA expression inside wound compared to vehicle” value is recorded as approximately 60%, the “average decrease in MMP9 RNA expression inside wound compared to vehicle” value is given as approximately 60% and the “average decrease in p16 RNA expression inside wound compared to vehicle” value was approximately 30%.
For `O=c1c(O)c(-c2ccc(O)c(O)c2)oc2cc(O)ccc12` [fisetin], in data set [4], the bioavailability result is given as “limited bioavailability”.
Take Triton X-100 [reference compound]: the hemolysis result in [5] (concentrations ≥0.01% (w/w), positive control) is “substantial hemolysis”.
